These results are taken from publication PMC7845634 (mBio, 2021).

Common to all, as to assay type: cell-based
Assay [1] relates to SARS-CoV-2 replicon. The assay is described as follows: microbe, parasite or virus in culture. As to conditions: for IC50: Severe acute respiratory syndrome coronavirus 2, HEK-293T, read-out: IC50 upon replicon RNA synthesis (luciferase activity); for Result of compound library screening on replicon: Approved Drug Screening Library, final concentration 20 μM, 24 h treatment.
The subject of assay [2] is GFP signal of ps2V plasmid.
Assay [3] relates to authentic SARS-CoV-2. The experiment in a line: Authentic SARS-CoV-2 infection assay, viral RNA copies by RT-qPCR. Conditions: Severe acute respiratory syndrome coronavirus 2, HEK-293T, 24 h, read-out: IC50 on authentic viruses (viral RNA copies). (In general: In qPCR the cycle at which signal appears reflects the starting amount.)
In assay [4] the test system is IRES-CMV-luciferase. The experiment in a line: IRES-CMV-luciferase plasmid counter-assay in 293T cells.
[5] abbreviates: Homo sapiens, HEK-293T, read-out: IC50 on IRES-CMV-luciferase activity, 293T cells, drug added 24 to 30 h after transfection, 24 h treatment.
Setting [6] is: 293T cells, drug added 24 to 30 h after transfection, 24 h treatment.

Read-outs that look alike come from different tables or passages of the source.

For `CCC(CC)COC(=O)[C@H](C)N[P@](=O)(OC[C@H]1O[C@@](C#N)(c2ccc3c(N)ncnn23)[C@H](O)[C@@H]1O)Oc1ccccc1` [remdesivir], in assay [1], the IC50 is 12.4 ± 1.08 µM. Further, in assay [2], the “Effect on GFP signal” value is listed as “little effect on GFP signal”.

In the case of `C[C@H]1O[C@@H](O[C@H]2[C@@H](O)C[C@H](O[C@H]3[C@@H](O)C[C@H](O[C@H]4CC[C@@]5(C)[C@H](CC[C@@H]6[C@@H]5CC[C@]5(C)[C@@H](C7=CC(=O)OC7)CC[C@]65O)C4)O[C@@H]3C)O[C@@H]2C)C[C@H](O)[C@@H]1O` [digitoxin], the “Result of compound library screening on replicon” value (“Result” below) in assay [1] was “hit”.

As to `O=C1c2c(O)ccc(O)c2C(=O)c2c(NCCNCCO)ccc(NCCNCCO)c21` [mitoxantrone], the 50% inhibitory concentration (IC50) in assay [1] was found to be 0.338 ± 0.235 µM; in assay [3], 0.133 ± 0.0901 µM; in assay [4] (293T cells, drug added 24 to 30 h after transfection, 24 h treatment, read-out: IC50 on IRES-CMV-luciferase activity) it was 26.8 ± 1.2 µM; in assay [4] (setting [5]), 27.8 µM.

Consider `COc1cccc2c1C(=O)c1c(O)c3c(c(O)c1C2=O)C[C@@](O)(C(=O)CO)C[C@@H]3O[C@H]1C[C@H](N)[C@H](O)[C@H](C)O1` [Adriamycin], for which the IC50 came to 0.824 ± 0.114 µM in assay [1], 0.612 ± 0.228 µM in assay [3] and 17.8 µM in assay [4] (setting [5]).

In the case of `CC(C)c1nc(CN(C)C(=O)N[C@H](C(=O)N[C@@H](Cc2ccccc2)C[C@H](O)[C@H](Cc2ccccc2)NC(=O)OCc2cncs2)C(C)C)cs1` [ritonavir], the IC50 in assay [1] was determined as 14.8 ± 1.05 µM. The “Effect on GFP signal” value in assay [2] is reported as “little effect on GFP signal”.

In the case of `CCc1cc2c(cc1N1CCC(N3CCOCC3)CC1)C(C)(C)c1[nH]c3cc(C#N)ccc3c1C2=O` [alectinib], the IC50 in assay [1] was determined as 0.564 ± 0.0175 µM; in assay [3], 0.14 ± 0.0913 µM. The “IC50 on IRES-CMV-luciferase activity” value in assay [4] (setting [6]) is “no statistical significance”.

Take `CC[C@H]1CN2CCc3cc(OC)c(OC)cc3[C@@H]2C[C@@H]1C[C@H]1NCCc2cc(OC)c(OC)cc21` [emetine]: in assay [1], the “Result” value was “hit” and the IC50 turned out to be 0.273 ± 0.0093 µM. In addition, the IC50 in assay [3] is 0.155 ± 0.068 µM. The “Effect on GFP signal” value in assay [2] is recorded as “little effect on GFP signal”.

As for `Cc1cccc(C)c1OCC(=O)N[C@@H](Cc1ccccc1)[C@@H](O)C[C@H](Cc1ccccc1)NC(=O)[C@H](C(C)C)N1CCCNC1=O` [lopinavir], the IC50 in assay [1] came out at 6.79 ± 1.09 µM. Also, the “Effect on GFP signal” value in assay [2] is listed as “little effect on GFP signal”.

On to `C=CC(=O)Nc1cccc(Nc2nc(Nc3ccc(N4CCN(C(C)=O)CC4)cc3OC)ncc2C(F)(F)F)c1` [rociletinib], for which the IC50 in assay [1] came to 7.32 ± 1.21 µM; in assay [3] it was 11.2 ± 1.89 µM. Moreover, the “IC50 on IRES-CMV-luciferase activity” value in assay [4] (setting [6]) is listed as “no statistical significance”.

Take `Cc1ccc(NC(=O)c2ccc(CN3CCN(C)CC3)cc2)cc1Nc1nc(-c2cccnc2)cs1` [masitinib]: the IC50 in assay [1] stood at 0.652 ± 0.0661 µM; in assay [3] it was 0.597 ± 0.341 µM; in assay [4] (setting [5]) it was 8.64 µM.

Regarding `C[C@@H]1O[C@@H](O[C@H]2C[C@@H](O)[C@]3(CO)[C@H]4[C@H](O)C[C@]5(C)[C@@H](C6=CC(=O)OC6)CC[C@]5(O)[C@@H]4CC[C@]3(O)C2)[C@H](O)[C@H](O)[C@H]1O` [ouabain], the “Result” value in assay [1] was “hit”.

As to `CCN(CC)C(=S)SSC(=S)N(CC)CC` [disulfiram], the IC50 in assay [1] was 9.32 ± 1.65 µM. The “Effect on GFP signal” value in assay [2] is “little effect on GFP signal”.

In general, IC50 refers to the concentration that inhibits the measured activity by half.
